{
  "source": "patent US20220040263A1",
  "about": "“COMPANION DIAGNOSTIC FOR COMBINATION LENALIDOMIDE AND ERYTHROPOIETIN TREATMENT” (H. Lee Moffitt Cancer Center and Research Institute, Inc., priority 2016, published 2022)",
  "key": {"[1]": {"test_system": "Jak2 and STAT5 phosphorylation in UT7 cells", "assay": "Jak2 and STAT5 phosphorylation in UT7 cells with JAK or Src kinase inhibitors (Western)", "format": "cell-based", "protocol": "10×10^7 UT7 cells were serum starved then treated with SKI 606 or AG490 for 30 minutes, CC5013 for 2 hours, and stimulated with EPO (1 U/ml) for 10 minutes at 37° C. Cells were lysed and […] run on a 4-15% Gradient gel (Bio-rad). Antibodies included p-STAT5 (Upstate, 1:1000 in 5% TBS/milk), total STAT5 (Cell Signaling, 1:10000 in 5% TBS/milk), and p-Jak2 (Santa Cruz, 1:500 in 5% TBS/milk). Blots were developed with an ECL detection kit (Amersham).\nTo further evaluate the mechanism by which lenalidomide enhances the EPO-R signal, STAT5 activation was assessed in response to EPO+lenalidomide treatment using selective pharmacologic inhibitors of JAK (AG490) or Src ([…]) kinases [FIG. 4]."}, "[2]": {"test_system": "U937 (non-del5q) cells", "assay": "Apoptosis by Annexin-V/PI flow cytometry in U937 cells", "format": "cell-based", "settings": "24 hours, all concentrations", "protocol": "(§1) AML-EH5q (FIG. 8A) and U937 (FIG. 8B) cells were exposed to lenalidomide, thalidomide or vehicle at the concentrations indicated for 24 hours in IMDM and 20% FBS and apoptosis assessed by flow cytometry using Annexin-V/PI staining. Briefly, cells are incubated for 20 minutes at room temperature in 50 mM HEPES (pH 7.4) and 150 mM NaCl containing 2 mM calcium chloride with a mixture of 1 μg/mLAnnexin V-FITC (Boehringer Mannhein, Mannhein, Germany) and 2.5 μg/mL propidium iodide (PI; Sigma-Aldrich) before analysis.\n(§2) The hematologic effects of lenalidomide could derive from dual effects that are karyotype-dependent, i.e., (1) the potentiation of erythropoiesis in non-del5q erythroid precursors, and (2) selective suppression of del5q clones. To confirm that lenalidomide is selectively cytotoxic to del-5q clones, an AML cell line transformed from an MDS patient with isolated 5q31 deletion was cultivated and the cell line successfully maintained in suspension culture with recombinant myeloid growth factor supplementation. This cell line [designated AML-EH5q] is an AML cell line that harbors the isolated 5q-deletion. […] To evaluate the selectivity of lenalidomide cytotoxic for del5q clones, apoptotic response to lenalidomide and thalidomide was compared in AML-EH5q and U937 (non-del5q) cells by flow cytometry. […] Viability was unaffected at all concentrations for both agents in U937 cells."}, "[3]": {"test_system": "c-Src", "assay": "c-Src activation (p-Src416, p-Src527, Bcl-XL) in UT7 cells by Western immunoblot", "format": "cell-based", "source_text": "FIGS. 5A and 5B show lenalidomide potentiates c-Src activation. […] Cells were lysed and assayed for β-actin (Sigma), or Src, p-Src416, p-Src 527 and Bcl-XL (Cell Signaling) by Western immunoblot. Protein loading was normalized to β-actin. Relative Src activation in FIG. 5B represents the ratio of p-Src416 (activation site phosphorylation) to p-Src527 (C-terminal inhibitory p-tyrosine).\nTo confirm that EPO-R signal potentiation by lenalidomide is associated with activation of Src and Lyn kinases, Src activation was evaluated using phospho-tyrosine specific antibodies that recognize either the activation loop tyrosine (Tyr416) or the C-terminal inhibitory tyrosine (Tyr527) of c-Src. Lenalidomide alone increased phosphorylation of Tyr416 by 50% compared to the vehicle treated control [FIG. 5]."}, "[4]": {"test_system": "MDS BM-MNC", "assay": "Clonogenic (colony forming) assay of MDS BM-MNC pretreated with lenalidomide, plated with EPO", "format": "cell-based, human", "protocol": "FIGS. 1A and 1B show Lenalidomide potentiates clonogenic response to […]. […] Colonies were scored after 14 days incubation and the growth of bone marrow colony-forming unit granulocyte, erythroid, macrophage, megakaryocyte (CFU-GEMM); burst-forming unit-erythroid (BFU-E); and colony-forming unit granulocyte-macrophage (CFU-GM) assessed. […] Cells were then plated in methylcellulose+10% FBS, 2000 cells/well, with or without erythropoietin (EPO). Colonies were scored at day seven.\nTo investigate the mechanism by which lenalidomide promotes erythropoiesis, the effect of lenalidomide on erythroid progenitor colony forming capacity was evaluated in lower risk patients [FIG. 1A]. Two-hour exposure to lenalidomide prior to initiation of BM-MNC in methylcellulose culture enhanced BFU-E formation over a concentration range of 0.001-1.0 μM. […] Erythroid progenitor cell lines were next evaluated to identify a model for investigation of the mechanism of lenalidomide's erythroid promoting effect."}, "[5]": {"test_system": "AML-EH5q cells", "assay": "Apoptosis by Annexin-V/PI flow cytometry in AML-EH5q cells", "format": "cell-based", "settings": "AML-EH5q (5q-deleted) cells, 24 hours", "protocol": "as §1, §2"}, "[6]": {"test_system": "STAT5", "assay": "STAT5 DNA binding by EMSA in UT7 nuclear extracts", "format": "cell-based", "settings": "combined lenalidomide and EPO treatment"}, "[7]": {"settings": "two-hour exposure prior to methylcellulose culture"}},
  "data": [
    {"smiles": "Nc1cccc2c1CN(C1CCC(=O)NC1=O)C2=O", "note": "(stereo not drawn) [lenalidomide, 3-(4-amino-1-oxo-1,3-dihydro-2H-isoindol-2-yl)piperidine-2,6-dione]", "values": [
      {"measurement": "EPO-induced Jak2-phosphorylation", "setting": "[1]; lenalidomide + EPO (Lane 7)", "value": "further augmented"},
      {"measurement": "Jak2-phosphorylation", "setting": "[1]; lenalidomide alone (Lane 2)", "value": "increased"},
      {"measurement": "viability / apoptosis", "setting": "[2]", "value": "unaffected"},
      {"measurement": "increase in phosphorylation of Src Tyr416 compared to the vehicle treated control", "setting": "[3]; lenalidomide alone", "value": 50, "unit": "%"},
      {"measurement": "Src activation compared to the vehicle control", "setting": "[3]; lenalidomide combined with EPO, supra-additive", "value": "~3", "unit": "fold"},
      {"measurement": "EPO-dependent induction of Bcl-XL", "setting": "[3]; lenalidomide pre-treatment", "value": "augmented"},
      {"measurement": "growth of multipotent progenitors (CFU-GEMM)", "setting": "[4]; [7]", "value": "unchanged"},
      {"measurement": "growth of myeloid progenitors (CFU-GM)", "setting": "[4]; [7]", "value": "unchanged"},
      {"measurement": "concentration range over which BFU-E formation was enhanced", "setting": "[4]; two-hour exposure prior to methylcellulose culture with EPO, lower risk MDS BM-MNC", "value": "0.001 to 1.0", "unit": "µM"},
      {"measurement": "induction of programmed cell death (apoptosis)", "setting": "[5]", "value": "concentration dependent induction of programmed cell death"},
      {"measurement": "induction of programmed cell death (apoptosis)", "setting": "[5]; listed as Lenalidomide", "value": "selectively induced cell death"},
      {"measurement": "STAT5 DNA binding (nuclear translocation)", "setting": "[6]", "value": "greater DNA binding"}
    ]}
  ]
}
